Laboratory results: PMC8468607 (International Journal of Molecular Sciences, 2021)

Legend:
[1] = Cytotoxicity assay (MTT), H6c7 normal pancreatic duct epithelial cells; format: cell-based; details: normal human pancreatic duct epithelial cells, mean ± S.E.M., read-out: IC50 against cell viability (cytotoxicity), H6c7
Method: (§1) Human cancer cell lines derived from the liver (Hep3B, Huh7) and the lung (A549, H1299) were obtained from American Type Culture Collection (ATCC, Manassas, VA, USA). An H6c7 human normal pancreatic duct epithelial cell line was purchased from Kerafast (Boston, MA, USA). Hep3B, Huh7, and A549 cells were cultured in Dulbecco′s Modified Eagle′s Medium (DMEM) (Hyclone, Logan, UT, USA), and H1299 cells were cultured in an RPMI-1640 medium (Hyclone). The media were supplemented with 10% fetal bovine serum (FBS) (Gibco/ThermoFisher Scientific) and 1% penicillin/streptomycin (Gibco/ThermoFisher Scientific). In the case of H6c7, the cells were maintained in a keratinocyte serum-free medium supplemented with a recombinant […] (rEGF) and bovine pituitary extract (Gibco/ThermoFisher Scientific). All the cells were incubated at 37 °C under a 5% CO2 atmosphere.
The H6c7 cell line was seeded in a 96-well plate in a complete medium. After 24 h, the culture medium was changed into a keratinocyte serum-free medium. […] The optical density was measured at 540 nm using a Spectrostar Nano microplate reader (BMG LABTECH).

Hep3B cells [2] = assay: Apoptosis by annexin V-FITC/PI FACS, Hep3B; format: cell-based; details: Homo sapiens, 48 h, Q4 lower left, annexin V-FITC and PI negative, read-out: FACS quadrant Q4 viable cells, Hep3B
Method: (§2) Then, the cells were stained with propidium iodide and Annexin V-FITC using a FITC Annexin V apoptosis detection kit (BD Biosciences, San Jose, CA, USA) as per the manufacturer’s instructions. Briefly, the vehicle- or the drug-treated cells (1 × 10^5) were washed with ice-cold PBS twice and suspended in 1× binding buffer (100 μL). Then, 5 μL of Annexin V-FITC and 5 µL of PI were added, gently vortexed, and incubated for 15 min at 25 °C in the dark. Thereafter, 400 µL of 1× binding buffer was added and analyzed by flow cytometry (FACSVerse Cytometer, BD Biosciences).

A549 cells [3] = assay: Apoptosis by annexin V-FITC/PI FACS, A549; format: cell-based; details: Homo sapiens, 48 h, Q4 lower left, annexin V-FITC and PI negative, read-out: FACS quadrant Q4 viable cells, A549
Method: as §2

[4] = tested on: Hep3B cells xenografted onto CAM; assay: Hep3B xenografted CAM tumor model; format: in vivo, chick; details: 30 and 150 pmol/CAM, 4 days of incubation
Method: Fertilized chicken eggs were purchased from Byeolbichon Farm (Gyeongbuk, South Korea) and incubated at 37 °C with 55% relative humidity. On day 9 of egg incubation, a small hole was made in the shell over the air sac after the selection of bifurcated vessels. Another hole was made on the broadside using a needle by applying negative pressure to the wider part, creating false air sac. Using a grinding wheel (Dremel, Racine, WI, USA), a small window (1 cm^2) was created in the eggshell above the false air sac. […] The mixture was inoculated on the CAM (final drug doses = 30 and 150 pmol/CAM), and the anti-tumor activity of the drugs was compared at the same concentrations. After sealing the window in the eggshell, the eggs were then returned to the incubator. After 4 days of incubation, tumor tissues attached to CAM were resected from the embryo and harvested. The number of vessel branch points within the tumor region was counted and analyzed using ImageJ software. Chick embryo experiments were performed in accordance with the institutional guidelines of the Institute of Laboratory Animal Resources (1996) and Yeungnam University for the care and use of laboratory animals (2009). The experiment protocol was reviewed and approved by the Institutional Animal Care and Use Committee at the Yeungnam University.

[5] = tested on: several cancer cell lines; set-up: method as in PMID 27145715; details: cited from earlier work
normal cell lines = tested on: normal cell lines; set-up: method as in PMID 27145715; details: cited from earlier work
human c-Met kinase = target: T1, human c-Met kinase (Homo sapiens, UniProt P08581); assay: c-Met kinase assay (Kinase HotSpot, Reaction Biology); format: biochemical; details: for c-Met inhibition at fixed concentration / inhibition at 1 µM: 1 μM compound; for c-Met inhibition at fixed concentration: 1 µM; for inhibition at 1 µM: read-out: c-Met inhibition at fixed concentration; for IC50: three independent experiments, ATP 10 μM, read-out: IC50 against c-Met kinase
T1 construct: purchased Reaction Biology Corporation (Malvern, PA, USA), contract assay service
T1 sequence (P08581 25-1390): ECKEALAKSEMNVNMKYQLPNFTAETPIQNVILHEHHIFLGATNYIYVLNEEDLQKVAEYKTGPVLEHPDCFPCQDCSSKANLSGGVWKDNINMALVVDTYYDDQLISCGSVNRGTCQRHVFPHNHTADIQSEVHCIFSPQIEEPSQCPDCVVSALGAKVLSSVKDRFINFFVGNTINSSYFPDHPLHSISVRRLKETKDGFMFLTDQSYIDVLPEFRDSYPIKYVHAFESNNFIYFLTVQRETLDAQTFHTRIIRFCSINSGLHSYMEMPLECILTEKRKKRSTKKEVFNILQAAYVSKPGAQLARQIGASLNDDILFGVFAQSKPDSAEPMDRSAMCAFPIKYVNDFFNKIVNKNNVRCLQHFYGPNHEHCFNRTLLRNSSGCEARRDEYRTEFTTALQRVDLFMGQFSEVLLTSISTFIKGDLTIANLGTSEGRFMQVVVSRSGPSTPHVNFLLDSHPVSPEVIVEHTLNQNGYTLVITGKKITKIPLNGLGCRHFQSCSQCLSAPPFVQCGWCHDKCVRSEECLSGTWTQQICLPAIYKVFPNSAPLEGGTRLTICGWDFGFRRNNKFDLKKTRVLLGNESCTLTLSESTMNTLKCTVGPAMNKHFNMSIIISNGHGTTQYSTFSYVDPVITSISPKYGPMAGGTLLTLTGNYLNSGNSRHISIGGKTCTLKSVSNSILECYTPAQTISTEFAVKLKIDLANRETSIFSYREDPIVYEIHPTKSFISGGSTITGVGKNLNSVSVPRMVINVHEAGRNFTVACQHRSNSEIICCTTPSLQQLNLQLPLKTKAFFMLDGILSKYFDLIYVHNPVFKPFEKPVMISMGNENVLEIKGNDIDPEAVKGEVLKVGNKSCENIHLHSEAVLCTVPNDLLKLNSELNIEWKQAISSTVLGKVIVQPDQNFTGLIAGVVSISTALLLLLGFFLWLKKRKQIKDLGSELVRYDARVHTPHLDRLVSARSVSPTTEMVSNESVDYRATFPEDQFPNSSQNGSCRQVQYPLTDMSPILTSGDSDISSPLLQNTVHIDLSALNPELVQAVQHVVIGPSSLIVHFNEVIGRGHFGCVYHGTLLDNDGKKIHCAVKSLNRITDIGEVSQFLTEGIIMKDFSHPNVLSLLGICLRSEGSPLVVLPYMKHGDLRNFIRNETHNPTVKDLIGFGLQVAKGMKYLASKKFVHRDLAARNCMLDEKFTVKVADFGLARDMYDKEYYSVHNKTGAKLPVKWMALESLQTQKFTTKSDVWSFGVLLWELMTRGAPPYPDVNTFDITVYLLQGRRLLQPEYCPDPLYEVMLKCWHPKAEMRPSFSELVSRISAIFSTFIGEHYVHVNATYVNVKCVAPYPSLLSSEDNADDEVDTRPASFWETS
Method: Briefly, human c-Met kinase (5–10 mU) and peptide substrate ([…], 20 µM) were prepared in a reaction buffer with a final volume of 25 μL. The compounds were delivered into the reaction, followed ~20 min. later by the addition of a mixture of ATP and [γ-33P-ATP] (specific activity approx. 500 cpm/pmol, concentration as required) to a final concentration of 10 μM. […] Then, the reaction was spotted onto a P30 filtermat, and unbound phosphate was removed by washing 3 times for 5 min in 75 mM phosphoric acid and once in methanol prior to drying and scintillation counting. […] IC50 values and curve fits were obtained using GraphPad Prism 5 software.

Hep3B cells [6] = assay: Proliferation assay (MTT), Hep3B; format: cell-based; details: Homo sapiens, HCC cell line, 48 h, mean ± S.E.M., read-out: IC50 against cell proliferation, Hep3B
From the text: as §1, with “Hep3B, Huh7, and A549 cells were cultured in Dulbecco′s Modified Eagle′s Medium (DMEM) (Hyclone, Logan, UT, USA), and H1299 cells were cultured in an RPMI-1640 medium (Hyclone).” left out, “Scientific).” for “Scientific). All the cells were incubated at 37 °C under a 5% CO2 atmosphere.”
(§3) HCC (Hep3B, Huh7) and NSCLC (A549, H1299) cell lines were seeded in a 96-well plate at a density of 2.5 × 10^4 cells/mL in complete media and allowed to adhere for 24 h. […] Then, the media were removed, and 200 µL of dimethyl sulfoxide (DMSO) (Duksan, Ansan, South Korea) was added to solubilize the formazan crystal. After a 30 min incubation, the absorbance was measured at 540 nm using a microplate reader (BMG LABTECH, Ortenberg, Germany).

Huh7 cells = assay: Proliferation assay (MTT), Huh7; format: cell-based; details: Homo sapiens, Huh-7, HCC cell line, 48 h, mean ± S.E.M., read-out: IC50 against cell proliferation, Huh7
From the text: as §1, with “Hep3B, Huh7, and A549 cells were cultured in Dulbecco′s Modified Eagle′s Medium (DMEM) (Hyclone, Logan, UT, USA), and H1299 cells were cultured in an RPMI-1640 medium (Hyclone).” left out, “Scientific).” for “Scientific). All the cells were incubated at 37 °C under a 5% CO2 atmosphere.”
as §3

A549 cells [7] = assay: Proliferation assay (MTT), A549; format: cell-based; details: Homo sapiens, NSCLC cell line, 48 h, mean ± S.E.M., read-out: IC50 against cell proliferation, A549
From the text: as §1, with “Hep3B, Huh7, and A549 cells were cultured in Dulbecco′s Modified Eagle′s Medium (DMEM) (Hyclone, Logan, UT, USA), and H1299 cells were cultured in an RPMI-1640 medium (Hyclone).” left out, “Scientific).” for “Scientific). All the cells were incubated at 37 °C under a 5% CO2 atmosphere.”
as §3

H1299 cells = assay: Proliferation assay (MTT), H1299; format: cell-based; details: Homo sapiens, NCI-H1299, NSCLC cell line, 48 h, mean ± S.E.M., read-out: IC50 against cell proliferation, H1299
From the text: as §1, with “Hep3B, Huh7, and A549 cells were cultured in Dulbecco′s Modified Eagle′s Medium (DMEM) (Hyclone, Logan, UT, USA), and H1299 cells were cultured in an RPMI-1640 medium (Hyclone).” left out, “Scientific).” for “Scientific). All the cells were incubated at 37 °C under a 5% CO2 atmosphere.”
as §3

c-MET = assay: Immunoblotting of c-MET expression and phosphorylation in HCC and NSCLC cell lines; format: cell-based, human; details: 10 μM, 24 and 48 h; Hep3B, Huh7, A549, H1299 cells
Method: The cells (3.5 × 10^5) were seeded into a 60 mm dish and allowed to attach for 12 h. […] Cell lysates were collected in a radioimmune precipitation assay (RIPA) buffer containing a protease and phosphatase inhibitor cocktail (Thermo Fisher Scientific). Cell extracts were centrifuged at 17,000× g for 15 min, and the protein levels in collected supernatants were measured using a BCA protein assay reagent (Pierce; Rockford, IL, USA). The proteins were separated by SDS-PAGE and transferred at 200 mA to Hybond ECL nitrocellulose membranes (Amersham Life Science, Buckinghamshire, UK) for 1 h. Non-specific binding was blocked using 5% bovine serum albumin (BSA) in Tris-buffered saline (TBS)-Tween 20 (TBS-T) for 1 h. […] The membranes were then washed, incubated with ECL (Pierce, Appleton, WI, USA) detection reagent, and exposed under a luminescent image analyzer, LAS-4000mini. β-Actin was used as the loading control.

c-Met inhibition at fixed concentration (human c-Met kinase)	inhibition at 1 µM (human c-Met kinase)	IC50 (human c-Met kinase)	IC50 (Hep3B cells [6])	IC50 (Huh7 cells)	IC50 (A549 cells [7])	IC50 (H1299 cells)	melting point	SMILES	IC50 at 48 h [1]	viability at 10 µM (Hep3B cells [2])	viability at 10 µM (A549 cells [3])	Tumor-induced angiogenesis (number of new vessel branches) [4]	Anti-cancer activity against several cancer cell lines compared to sunitinib [5]	Toxicity to normal cell lines compared to sunitinib (normal cell lines)	Inhibitory effect on tumor weight [4]	Expression of c-MET and its phosphorylation (c-MET)
–	–	–	–	–	–	–	–	COc1cc2nccc(Oc3ccc(NC(=O)C4(C(=O)Nc5ccc(F)cc5)CC4)cc3)c2cc1OC [Cabozantinib, cabozantinib, reference compound]	39.4 ± 4.3 µM	79.5%	81.3%	significantly blocked	–	–	–	–
–	–	–	–	–	–	–	–	CCN(CC)CCNC(=O)c1c(C)[nH]c(/C=C2\C(=O)Nc3nc(C)c(O)c(C)c32)c1C [Compound 1]	–	–	–	–	comparable anti-cancer activity	less toxic to normal cell lines	–	–
4%	3.8%	> 1 µM	> 100 µM	> 100 µM	> 100 µM	> 100 µM	141 °C	COc1cc2nccc(Oc3c(C)nc(NC(=O)C4(C(=O)Nc5ccc(F)cc5)CC4)c(C)c3C)c2cc1OC [Compound 3]	> 100 µM	–	–	–	–	–	–	–
94%	94.3%	0.0049 ± 0.0023 µM	2.1 ± 0.5 µM	6.2 ± 1.8 µM	12.4 ± 6.9 µM	8.9 ± 1.2 µM	119 °C	COc1cc2nccc(Oc3ccc(NC(=O)C4(C(=O)Nc5ccc(F)cc5)CC4)nc3)c2cc1OC [Compound 4]	19.9 ± 1.8 µM	35.3%	61.8%	significantly blocked	–	–	greater than that of cabozantinib	significantly reduced
